For data set [1], the target named is T1, DDB1DB/DCAF15 and RBM39 R1R2 complex (Homo sapiens, UniProt Q14498+Q66K64).
T1 construct: Amino acids 150 to 331 of RBM39 were cloned into pGEX4T3; GST (from vector pGEX4T3); TEV cleavage site (N); made in house; host or cells: DDB1DB/His-DCAF15: baculovirus/Sf9 co-expression; RBM39 R1R2: E. coli (pGEX4T3)
Nature of the data set: DCAF15 RBM39 Complex Formation Assay (FRET). The class given is binding. The following applies: FRET ratio Em 665/Em 615, incubated overnight at 4° C. The gist of the method: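 Ternary complex formation read by TR-FRET (Em 665/615, excitation 340 nm) after overnight incubation at 4° C of 20 nM baculovirus DDB1DB/His-DCAF15 and 50 nM E. coli RBM39 RRM1-RRM2 FLAG fragment with 14-point, 3-fold compound dilutions from 1 μM; EC50 from 4-parameter fit.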

For data set [2], the system named is HCT116 human colorectal carcinoma cells. Kind of data set: CellTiter-Glo Luminescent Cell Viability Assay. The class given is cell-based. The following applies: HCT-116, 72 h, 3 days. The essentials:
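HCT116 cells were exposed for 3 days to compound in triplicate at final concentrations of 5 to 0.0002 […] (1:3 dilutions). Viability was read by CellTiter-Glo luminescence, and IC50 values were calculated.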
(ATP-based viability assays read luminescence as a measure of living cells.)

Data set [3] deals with HCT116 colorectal carcinoma cells. Kind of data set: In vivo efficacy study, HCT116 xenograft. The following applies: for Body Weight (g) Mean ± SEM / Tumor Volume (mm^3) Mean ± SEM / Tumor Weight (g) Mean ± SD: HCT116 xenograft mice; for body weight versus vehicle group / reduction of tumor volume and tumor weight: HCT116 mouse model, compound 3 100 mg/kg BID, compound 136 30 mg/kg BID, 12 days; for reduction of tumor volume and tumor weight: versus vehicle. Details: species or system Athymic Nude mice. The source says: Compound 3 were formulated with 10% absolute ethanol, 30% PEG400, 60% water containing 0.5% methyl cellulose and 0.5% Tween80®. 2×10^6 HCT116 colorectal carcinoma cells (ATCC® CCL-247) in PBS and Matrigel (1:1 in volume) were inoculated subcutaneously in the right flank of Athymic Nude mice at 6-7 weeks of age for tumor development. When the xenografts reached about 150 mm^3 in size, the tumor bearing mice were randomly grouped into six groups (n=6) and treated by oral gavage with vehicle (10% absolute ethanol, 30% PEG400, 60% water containing 0.5% methyl cellulose and 0.5% Tween80®, BID) or compound 3 at 100 mg/kg BID for 12 days. Tumor sizes were measured twice weekly in two dimensions using a caliper and the volume were expressed in mm^3 using the formula V=0.5×a×b^2 wherein a and b were the long and short diameters of the tumor, respectively. The efficacy study for compound 136 was carried out in the same manner as that of compound 3 except compound 136 was dosed at 30 mg/kg BID for 12 days.

The conditions of data set [4]: cited from earlier work.
The conditions of data set [5]: cited from earlier work; for treatment-induced myelosuppressive effect: clinical dosing, indisulam 700 mg/m^2 IV every 3 weeks, E7820 100 mg q.d. oral; for oral bioavailability: in vivo.
[6] abbreviates: 100 mg/kg BID oral gavage for 12 days.
The mark [7] stands for this setting: 30 mg/kg BID oral gavage for 12 days.

This is an account of results in US20250368627A1, “PYRAZOLESULFONAMIDES AS ANTITUMOR AGENTS” (Peloton Therapeutics, Inc., a fully owned subsidiary of …, priority 2019, published 2025).

By IC50 is commonly meant the concentration that inhibits the measured activity by half. By EC50 is commonly meant the concentration needed to bring the measured effect to its halfway point.

T1 sequence (Q66K64 whole entry, the tested form may be a part): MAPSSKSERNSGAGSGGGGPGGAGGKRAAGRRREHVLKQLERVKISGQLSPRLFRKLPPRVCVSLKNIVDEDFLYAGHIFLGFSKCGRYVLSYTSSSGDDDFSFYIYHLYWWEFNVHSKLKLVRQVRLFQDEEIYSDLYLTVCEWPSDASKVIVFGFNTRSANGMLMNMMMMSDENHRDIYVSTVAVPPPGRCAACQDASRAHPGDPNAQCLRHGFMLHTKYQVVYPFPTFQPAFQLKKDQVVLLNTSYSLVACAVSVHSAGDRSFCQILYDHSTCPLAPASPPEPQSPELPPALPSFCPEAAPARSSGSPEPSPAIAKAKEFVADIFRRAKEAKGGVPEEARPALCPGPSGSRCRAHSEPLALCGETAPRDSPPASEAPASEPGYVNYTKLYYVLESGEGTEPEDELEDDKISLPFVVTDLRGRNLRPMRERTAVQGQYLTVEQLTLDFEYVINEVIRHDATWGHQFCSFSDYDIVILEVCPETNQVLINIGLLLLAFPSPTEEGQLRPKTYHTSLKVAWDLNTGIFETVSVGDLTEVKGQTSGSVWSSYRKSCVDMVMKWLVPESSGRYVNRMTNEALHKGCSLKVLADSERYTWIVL
T1 sequence (Q14498 150-331): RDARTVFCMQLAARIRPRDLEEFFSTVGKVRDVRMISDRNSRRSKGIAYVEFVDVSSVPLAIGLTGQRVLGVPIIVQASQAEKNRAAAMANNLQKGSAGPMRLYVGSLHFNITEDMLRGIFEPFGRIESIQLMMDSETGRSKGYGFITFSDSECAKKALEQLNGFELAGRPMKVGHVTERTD
T1 sequence (Q16531 with tags, fused parts or gaps DEL396-708 partner): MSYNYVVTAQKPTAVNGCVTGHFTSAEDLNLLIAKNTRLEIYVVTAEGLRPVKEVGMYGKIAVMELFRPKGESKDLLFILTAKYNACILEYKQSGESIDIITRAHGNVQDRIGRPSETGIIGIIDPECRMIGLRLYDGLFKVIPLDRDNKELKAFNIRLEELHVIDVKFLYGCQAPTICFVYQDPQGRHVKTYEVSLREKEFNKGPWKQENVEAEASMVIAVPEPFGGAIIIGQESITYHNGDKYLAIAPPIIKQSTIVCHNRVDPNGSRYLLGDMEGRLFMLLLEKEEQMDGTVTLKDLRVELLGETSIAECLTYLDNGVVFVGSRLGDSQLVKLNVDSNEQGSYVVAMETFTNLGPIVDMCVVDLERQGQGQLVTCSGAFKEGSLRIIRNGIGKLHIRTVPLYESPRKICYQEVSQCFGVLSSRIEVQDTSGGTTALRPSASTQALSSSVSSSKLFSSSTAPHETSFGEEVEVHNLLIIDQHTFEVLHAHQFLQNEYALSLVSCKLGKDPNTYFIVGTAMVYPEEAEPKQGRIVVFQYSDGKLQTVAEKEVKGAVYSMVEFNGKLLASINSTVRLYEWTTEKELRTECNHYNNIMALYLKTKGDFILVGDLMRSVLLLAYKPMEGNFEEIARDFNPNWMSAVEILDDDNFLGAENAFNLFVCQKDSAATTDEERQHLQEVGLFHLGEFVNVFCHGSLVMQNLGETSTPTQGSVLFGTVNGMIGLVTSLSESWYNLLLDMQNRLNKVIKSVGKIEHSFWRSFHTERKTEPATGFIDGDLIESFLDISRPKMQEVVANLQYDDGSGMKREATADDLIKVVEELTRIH

With `Cc1ccc(NS(=O)(=O)c2cnn(C)c2)c2[nH]cc(C#N)c12` [Compound 3, N-(3-cyano-4-methyl-1H-indol-7-yl)-1-methyl-pyrazole-4-sulfonamide], in data set [1], the IC50 was under 250 nM. Further, the concentration giving a half-maximal response (EC50) in data set [2] was in the range of 250 to 1000 nM. Besides, in data set [3] (setting [6]), the “Body Weight (g) Mean ± SEM” value turned out to be 22.44 ± 0.16 g, the “Tumor Volume (mm^3) Mean ± SEM” value worked out at 122.9 ± 33.9 mm^3 and the “Tumor Weight (g) Mean ± SD” value is on record as “.013 ± 0.005 g”. In addition, in data set [3], the “body weight versus vehicle group” value is listed as “no significant difference”; the “reduction of tumor volume and tumor weight” value is recorded as “statistically significant reduction”.
Take `CC(C)(O)Cn1cc(S(=O)(=O)Nc2ccc(Cl)c3c(C#N)c[nH]c23)cn1` [Compound 136, N-(4-chloro-3-cyano-1H-indol-7-yl)-1-(2-hydroxy-2-methyl-propyl)pyrazole-4-sulfonamide]: in data set [1], the half-inhibitory concentration (IC50) was under 250 nM. In data set [2], the EC50 was in the range of 250 to 1000 nM. Also, in data set [3] (setting [7]), the “Body Weight (g) Mean ± SEM” value is on record as 21.4 ± 0.14 g, the “Tumor Volume (mm^3) Mean ± SEM” value is 175.7 ± 12.3 mm^3 and the “Tumor Weight (g) Mean ± SD” value is reported as “.083 ± 0.06 g”. Moreover, in data set [3], the “body weight versus vehicle group” value is “no significant difference”; the “reduction of tumor volume and tumor weight” value is recorded as “statistically significant reduction”.
For `CC(F)(CO)n1cc(S(=O)(=O)Nc2ccc(F)c3c(C#N)c[nH]c23)cn1` (centres unmarked) [Compound 294, N-(3-cyano-4-fluoro-1H-indol-7-yl)-1-(1-fluoro-2-hydroxy-1-methyl-ethyl)pyrazole-4-sulfonamide], in data set [1], the IC50 is under 250 nM. Besides, the EC50 in data set [2] was over 1000 nM.
In the same order, the values of `Cc1ccc(NS(=O)(=O)c2c[nH]nc2N)c2[nH]cc(C#N)c12` [Compound 295, 3-amino-N-(3-cyano-4-methyl-1H-indol-7-yl)-1H-pyrazole-4-sulfonamide] are under 250 nM and 250 to 1000 nM.
In the same order, the values of `N#Cc1c[nH]c2c(NS(=O)(=O)c3c[nH]nc3N)ccc(Cl)c12` [Compound 296, 3-amino-N-(4-chloro-3-cyano-1H-indol-7-yl)-1H-pyrazole-4-sulfonamide] are under 250 nM and over 1000 nM.
With `Cc1ccc(NS(=O)(=O)c2cnn(C(F)CO)c2)c2[nH]cc(C#N)c12` (centres unmarked) [Compound 297, N-(3-cyano-4-methyl-1H-indol-7-yl)-1-(1-fluoro-2-hydroxy-ethyl)pyrazole-4-sulfonamide], the 50% inhibitory concentration (IC50) in data set [1] was under 250 nM. Besides, the EC50 in data set [2] was under 250 nM.
Consider `N#Cc1c[nH]c2c(NS(=O)(=O)c3cnn(C(F)CO)c3)ccc(F)c12` (centres unmarked) [Compound 298, N-(3-cyano-4-fluoro-1H-indol-7-yl)-1-(1-fluoro-2-hydroxy-ethyl)pyrazole-4-sulfonamide], for which the concentration for half-maximal inhibition (IC50) in data set [1] is under 250 nM. In data set [2], the EC50 was in the range of 250 to 1000 nM.
In the case of `Cn1ncc(S(=O)(=O)Nc2cccc3c(C#N)c[nH]c23)c1N` [Compound 299, 5-amino-N-(3-cyano-1H-indol-7-yl)-1-methyl-pyrazole-4-sulfonamide], in data set [1], the IC50 was under 250 nM. Besides, the EC50 in data set [2] lay in the range of 250 to 1000 nM.
With `N#Cc1c[nH]c2c(NS(=O)(=O)c3c[nH]nc3N)ccc(F)c12` [Compound 300, 3-amino-N-(3-cyano-4-fluoro-1H-indol-7-yl)-1H-pyrazole-4-sulfonamide], in data set [1], the IC50 is under 250 nM. In addition, in data set [2], the EC50 is over 1000 nM.
The matching figures for `Cc1ccc(NS(=O)(=O)c2cnn(C(F)(F)CO)c2)c2[nH]cc(C#N)c12` [Compound 301, N-(3-cyano-4-methyl-1H-indol-7-yl)-1-(1,1-difluoro-2-hydroxy-ethyl)pyrazole-4-sulfonamide]: under 250 nM and under 250 nM.
The matching figures for `N#Cc1c[nH]c2c(NS(=O)(=O)c3cnn(CF)c3)ccc(F)c12` [Compound 302, N-(3-cyano-4-fluoro-1H-indol-7-yl)-1-(fluoromethyl)pyrazole-4-sulfonamide]: under 250 nM and 250 to 1000 nM.
Regarding `Cc1ccc(NS(=O)(=O)c2cnn([C@H](C)CO)c2N)c2[nH]cc(C#N)c12` [Compound 303, 5-amino-N-(3-cyano-4-methyl-1H-indol-7-yl)-1-[(1R)-2-hydroxy-1-methyl-ethyl]pyrazole-4-sulfonamide], the IC50 in data set [1] was under 250 nM. In data set [2], the EC50 is under 250 nM.
As for `Cc1ccc(NS(=O)(=O)c2cnn(C)c2N)c2[nH]nc(C#N)c12` [Compound 304, 5-amino-N-(3-cyano-4-methyl-1H-indazol-7-yl)-1-methyl-pyrazol-4-sulfonamide], the IC50 in data set [1] was under 250 nM. Also, the half-maximal effective concentration (EC50) in data set [2] is under 250 nM.
With `Cc1ccc(NS(=O)(=O)c2cnn(CF)c2)c2[nH]nc(C#N)c12` [Compound 305, N-(3-cyano-4-methyl-1H-indazol-7-yl)-1-(fluoromethyl)pyrazole-4-sulfonamide], the IC50 in data set [1] is under 250 nM. In data set [2], the half-maximal effective concentration (EC50) fell in the range of 250 to 1000 nM.
In the same order, the values of `C[C@H](CO)n1ncc(S(=O)(=O)Nc2ccc(Cl)c3c(C#N)c[nH]c23)c1N` [Compound 306, 5-amino-N-(4-chloro-3-cyano-1H-indol-7-yl)-1-[(1R)-2-hydroxy-1-methyl-ethyl]pyrazole-4-sulfonamide] are under 250 nM and 250 to 1000 nM.
For the compound `Cn1ncc(S(=O)(=O)Nc2ccc(Cl)c3c(C#N)n[nH]c23)c1N` [Compound 307, 5-amino-N-(4-chloro-3-cyano-1H-indazol-7-yl)-1-methyl-pyrazole-4-sulfonamide], the concentration for half-maximal inhibition (IC50) in data set [1] is under 250 nM. Besides, the EC50 in data set [2] was over 1000 nM.
In the same order, the values of `Cc1ccc(NS(=O)(=O)c2cnn(CF)c2N)c2[nH]cc(C#N)c12` [Compound 308, 5-amino-N-(3-cyano-4-methyl-1H-indol-7-yl)-1-(fluoromethyl)pyrazole-4-sulfonamide] are under 250 nM and 250 to 1000 nM.
In the same order, the values of `N#Cc1c[nH]c2c(NS(=O)(=O)c3cnn(CF)c3N)ccc(F)c12` [Compound 309, 5-amino-N-(3-cyano-4-fluoro-1H-indol-7-yl)-1-(fluoromethyl)pyrazole-4-sulfonamide] are under 250 nM and over 1000 nM.
In the same order, the values of `N#Cc1c[nH]c2c(NS(=O)(=O)c3cnn([C@H](CO)CF)c3)ccc(Cl)c12` [Compound 311, N-(4-chloro-3-cyano-1H-indol-7-yl)-1-[(1R)-1-(fluoromethyl)-2-hydroxy-ethyl]pyrazole-4-sulfonamide] are under 250 nM and 250 to 1000 nM.
Consider `N#Cc1c[nH]c2c(NS(=O)(=O)c3cnn(CF)c3N)cccc12` [Compound 312, 5-amino-N-(3-cyano-1H-indol-7-yl)-1-(fluoromethyl)pyrazole-4-sulfonamide], for which the IC50 in data set [1] was under 250 nM. In addition, in data set [2], the half-maximal effective concentration (EC50) is over 1000 nM.
In the case of `Cc1ccc(NS(=O)(=O)c2cccc(C#N)c2)c2[nH]cc(C#N)c12` [Compound E7820, E7820], the “measured drug concentration available (free drug)” value in data set [4] (according to the free drug principle) was “less than 1%”. Further, the plasma protein binding result in data set [4] is recorded as “greater than 99%”. Moreover, in data set [5], the treatment-induced myelosuppressive effect result was “same myelosuppressive effects” and the oral bioavailability entry is given as “good oral bioavailability”.
For `NS(=O)(=O)c1ccc(S(=O)(=O)Nc2cccc3c(Cl)c[nH]c23)cc1` [Indisulam, indisulam], in data set [5], the treatment-induced myelosuppressive effect entry is given as “treatment-induced myelosuppressive effect” and the oral bioavailability result was “poor oral bioavailability”.
